Like-named read-outs stand apart in the source and are kept apart here.
Assays:
IRAK4 enzyme = IRAK4 enzyme (Homo sapiens (Human), UniProt Q9NWZ3); test: biochemical; format: biochemical; settings: IRAK4 enzyme, 500 μM ATP
TNFα = test: cells; format: cell-based, human; settings: Homo sapiens, Monocyte, LPS-stimulated human monocytes, read-out: EC50 TNF

IRAK4 enzyme, sequence (Q9NWZ3 whole entry): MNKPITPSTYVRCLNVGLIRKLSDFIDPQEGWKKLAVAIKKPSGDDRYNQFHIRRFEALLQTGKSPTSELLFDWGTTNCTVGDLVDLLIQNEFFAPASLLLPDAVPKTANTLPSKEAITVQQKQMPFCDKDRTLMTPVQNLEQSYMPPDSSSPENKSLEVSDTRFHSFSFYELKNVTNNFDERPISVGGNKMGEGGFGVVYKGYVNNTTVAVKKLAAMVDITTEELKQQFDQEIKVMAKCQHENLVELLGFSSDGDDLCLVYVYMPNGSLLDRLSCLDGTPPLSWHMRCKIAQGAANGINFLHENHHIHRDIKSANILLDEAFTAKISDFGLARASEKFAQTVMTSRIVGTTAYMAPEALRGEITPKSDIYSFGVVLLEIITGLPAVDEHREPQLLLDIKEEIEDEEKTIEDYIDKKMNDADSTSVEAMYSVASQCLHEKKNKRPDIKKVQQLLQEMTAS

Row | SMILES | IC50 (IRAK4 enzyme; TR-FRET) [nM] | EC50 (TNFα; TNFα by TR-FRET) [nM] | IC50 (IRAK4 enzyme; TR-FRET (HTRF)) [nM] | EC50 (TNFα; TNFα content) [nM]
1 | CC1(F)CN(C(=O)CNC(=O)c2cnc(-c3ccc4cc(C#N)cnn34)cc2NC23CCC(O)(CC2)CC3)C1 [Example 797, 6-(3-cyanopyrrolo[1,2-b]pyridazin-7-yl)-N-(2-(3-fluoro-3-methyl-azetidin-1-yl)-2-oxoethyl)-4-((4-hydroxybicyclo[2.2.2]octan-1-yl)amino) nicotinamide] | 1 | 38 | – | –
2 | CC(C)(O)[C@H](F)CNC(=O)c1cnc(-c2ccc3cc(C#N)cnn23)cc1N[C@H]1C[C@@H](CO)C1 [Example 730] | – | – | < 1 | 40
3 | N#Cc1cnn2c(-c3cc(Nc4cnc5c(c4)OCCO5)c(C(=O)N[C@H]4CC[C@H](NC(=O)N5CCOCC5)CC4)cn3)ccc2c1 [Example 861, N-((1r,4r)-4-(6-(3-cyano-pyrrolo[1,2-b]pyridazin-7-yl)-4-((2,3-dihydro-[1,4]dioxino[2,3-b]pyridin-7-yl)amino)nicotinamido)cyclohexyl)morpholine-4-carboxamide] | < 1 | 16 | – | –
4 | CC(C)(O)[C@H](F)CNC(=O)c1cnc(-c2ccc3cc(C#N)cnn23)cc1Nc1ccc2c(c1)CC(=O)N2 [Example 650, (R)-6-(3-cyanopyrrolo[1,2-b]pyridazin-7-yl)-N-(2-fluoro-3-hydroxy-3-methylbutyl)-4-((2-oxo-indolin-5-yl)amino) nicotinamide] | – | – | < 1 | 16
5 | CNC(=O)c1cnc(-c2ccc3cc(C#N)cnn23)cc1N[C@H]1CC[C@H](NC(=O)OC)CC1 [Example 274, methyl ((1r,4r)-4-((2-(3-cyanopyrrolo[1,2-b]pyridazin-7-yl)-5-(methylcarbamoyl)pyridin-4-yl)amino)cyclohexyl)carbamate] | 1 | – | – | 144
6 | COC(=O)c1cncc(Nc2cc(-c3ccc4cc(C#N)cnn34)ncc2C(=O)NC[C@@H](F)C(C)(C)O)c1 [Example 594, (R)-methyl 5-((2-(3-cyanopyrrolo[1,2-b]pyridazin-7-yl)-5-((2-fluoro-3-hydroxy-3-methylbutyl)carbamoyl)pyridin-4-yl)amino) nicotinate] | – | – | 2 | 316
7 | CC(CCS(C)(=O)=O)Nc1cc(-c2ccc3cc(C#N)cnn23)ncc1C(=O)NC[C@@H](F)C(C)(C)O (stereo partly drawn) [Example 440, 6-(3-cyanopyrrolo[1,2-b]pyridazin-7-yl)-N-((R)-2-fluoro-3-hydroxy-3-methylbutyl)-4-((4-(methylsulfonyl)butan-2-yl)amino)nicotinamide] | – | – | 2 | 715
8 | CC(C)(O)[C@H](F)CNC(=O)c1cnc(-c2ccc3cc(C#N)cnn23)cc1NC1CCN(C2CC2)CC1 [Example 115, (R)-6-(3-cyanopyrrolo[1,2-b]pyridazin-7-yl)-4-((1-cyclopropylpiperidin-4-yl)amino)-N-(2-fluoro-3-hydroxy-3-methylbutyl)nicotinamide] | 4 | – | – | 196
9 | COCCNC(=O)C12CCC(Nc3cc(-c4ccc5cc(C#N)cnn45)ncc3C(=O)NC[C@@H](F)C(C)(C)O)(CC1)CC2 [Example 397, (R)-6-(3-cyanopyrrolo[1,2-b]pyridazin-7-yl)-N-(2-fluoro-3-hydroxy-3-methylbutyl)-4-((4-((2-methoxyethyl)carbamoyl)bicyclo[2.2.2]octan-1-yl)amino)nicotinamide] | – | – | 1 | 30
10 | N#Cc1cnn2c(-c3cc(NC45CCC(O)(CC4)CC5)c(C(=O)NCC(=O)N4CCN(C5COC5)CC4)cn3)ccc2c1 [Example 796, 6-(3-cyanopyrrolo[1,2-b]pyridazin-7-yl)-4-((4-hydroxybicyclo[2.2.2]octan-1-yl)amino)-N-(2-(4-(oxetan-3-yl)piperazin-1-yl)-2-oxoethyl)nicotinamide] | – | – | 2 | 75
11 | CC(C)(O)CCNc1cc(-c2ccc3cc(C#N)cnn23)ncc1C(=O)NC[C@@H](F)C(C)(C)O [Example 80, (R)-6-(3-cyanopyrrolo[1,2-b]pyridazin-7-yl)-N-(2-fluoro-3-hydroxy-3-methylbutyl)-4-((3-hydroxy-3-methylbutyl)amino) nicotinamide] | < 1 | – | – | 88
12 | CNC(=O)c1cnc(-c2ccc3cc(C#N)cnn23)cc1NC12CCC(C(=O)NC)(CC1)CC2 [Example 485, 6-(3-cyanopyrrolo[1,2-b]pyridazin-7-yl)-N-methyl-4-((4-(methyl-carbamoyl)bicyclo[2.2.2]octan-1-yl)amino) nicotinamide] | – | – | 1 | 39
13 | CC(C)(O)[C@H](F)CNC(=O)c1cnc(-c2ccc3cc(C#N)cnn23)cc1Nc1cnn(C2COC2)c1 [Example 43, (R)-6-(3-cyanopyrrolo[1,2-b]pyridazin-7-yl)-N-(2-fluoro-3-hydroxy-3-methyl-butyl)-4-((1-(oxetan-3-yl)-1H-pyrazol-4-yl)amino) nicotinamide] | < 1 | – | – | 30
14 | CC(C)(O)[C@H](F)CNC(=O)c1cnc(-c2ccc3cc(C#N)cnn23)cc1N[C@H]1C[C@H](CNC(=O)CC(F)(F)F)C1 [Example 655, 6-(3-cyanopyrrolo[1,2-b]pyridazin-7-yl)-N-((R)-2-fluoro-3-hydroxy-3-methylbutyl)-4-(((1r,3R)-3-((3,3,3-trifluoropropan-amido)methyl)cyclobutyl)amino)nicotinamide] | – | – | < 1 | 27
15 | CNC(=O)c1cnc(-c2ccc3cc(C#N)cnn23)cc1NC12CCC(C(=O)NC)(CC1)C2 [Example 468, 6-(3-cyanopyrrolo[1,2-b]pyridazin-7-yl)-N-methyl-4-((4-(methylcarbamoyl)bicyclo[2.2.1]heptan-1-yl)amino)nicotinamide] | – | – | 1 | 112
16 | CC(C)(O)[C@H](F)CNC(=O)c1cnc(-c2ccc3cc(C#N)cnn23)cc1Nc1cnc2c(c1)CC(=O)N2 [Example 668, (R)-6-(3-cyanopyrrolo[1,2-b]pyridazin-7-yl)-N-(2-fluoro-3-hydroxy-3-methylbutyl)-4-((2-oxo-2,3-dihydro-1H-pyrrolo[2,3-b]pyridin-5-yl)amino)nicotinamide] | – | – | 1 | 165
17 | N#Cc1cnn2c(-c3cc(NC45CCC(O)(CC4)CC5)c(C(=O)NCC(=O)N4CCC(O)C4)cn3)ccc2c1 [Example 944, (S)-6-(3-cyano-pyrrolo[1,2-b]pyridazin-7-yl)-4-((4-hydroxy-bicyclo[2.2.2]octan-1-yl)amino)-N-(2-(3-hydroxypyrrolidin-1-yl)-2-oxoethyl) nicotinamide] | < 1 | 209 | – | –
18 | CNC(=O)O[C@H]1CC[C@H](Nc2cc(-c3ccc4cc(C#N)cnn34)ncc2C(=O)NC[C@@H](F)C(C)(C)O)CC1 [Example 165, (1R,4r)-4-((2-(3-cyano-pyrrolo[1,2-b]pyridazin-7-yl)-5-(((R)-2-fluoro-3-hydroxy-3-methylbutyl)carbamoyl)pyridin-4-yl)amino)cyclohexyl methylcarbamate] | 59 | – | – | > 10000
19 | N#Cc1cnn2c(-c3cc(NC45CCC(O)(CC4)CC5)c(C(=O)NCC4CCO4)cn3)ccc2c1 (stereo not shown) [Example 616, 6-(3-cyanopyrrolo[1,2-b]pyridazin-7-yl)-4-((4-hydroxybicyclo[2.2.2]octan-1-yl)amino)-N-(oxetan-2-ylmethyl) nicotinamide] | – | – | 2 | 144
20 | CC(=O)N1CC2(CC(Nc3cc(-c4ccc5cc(C#N)cnn45)ncc3C(=O)NC[C@@H](F)C(C)(C)O)C2)C1 [Example 447, (R)-4-((2-acetyl-2-azaspiro[3.3]heptan-6-yl)amino)-6-(3-cyano-pyrrolo[1,2-b]pyridazin-7-yl)-N-(2-fluoro-3-hydroxy-3-methylbutyl) nicotinamide] | – | – | 5 | 286
21 | N#CCNC(=O)c1cnc(-c2ccc3cc(C#N)cnn23)cc1N[C@H]1CCC[C@@H](O)C1 [Example 459, N-(cyanomethyl)-6-(3-cyanopyrrolo[1,2-b]pyridazin-7-yl)-4-(((1S,3R)-3-hydroxycyclohexyl)amino) nicotinamide] | – | – | 1 | 125
22 | CC(C)(O)[C@H](F)CNC(=O)c1cnc(-c2ccc3cc(C#N)cnn23)cc1Nc1cnc2c(c1)OCCN2 [Example 855, (R)-6-(3-cyanopyrrolo[1,2-b]pyridazin-7-yl)-4-((3,4-dihydro-2H-pyrido[3,2-b][1,4]oxazin-7-yl)amino)-N-(2-fluoro-3-hydroxy-3-methylbutyl)nicotinamide] | < 1 | 9 | – | –
23 | CN(C)C(=O)O[C@H]1CC[C@H](Nc2cc(-c3ccc4cc(C#N)cnn34)ncc2C(=O)NC[C@@H](F)C(C)(C)O)CC1 [Example 164, (1R,4r)-4-((2-(3-cyano-pyrrolo[1,2-b]pyridazin-7-yl)-5-(((R)-2-fluoro-3-hydroxy-3-methylbutyl)carbamoyl)pyridin-4-yl)amino)cyclohexyl dimethylcarbamate] | 132 | – | – | 9940
24 | COC(=O)NC(C)(C)c1ccc(Nc2cc(-c3ccc4cc(C#N)cnn34)ncc2C(=O)NC[C@@H](F)C(C)(C)O)cc1 [Example 214, (R)-methyl(2-(4-((2-(3-cyanopyrrolo[1,2-b]pyridazin-7-yl)-5-((2-fluoro-3-hydroxy-3-methylbutyl)carbamoyl)pyridin-4-yl)amino)phenyl)propan-2-yl)carbamate] | 3 | – | – | 36
25 | CN1CCOc2cc(Nc3cc(-c4ccc5cc(C#N)cnn45)ncc3C(=O)N[C@H]3CC[C@H](NC(=O)C4CC4)CC3)ccc21 [Example 859, 6-(3-cyanopyrrolo[1,2-b]pyridazin-7-yl)-N-((1r,4r)-4-(cyclopropanecarboxamido)cyclohexyl)-4-((4-methyl-3,4-dihydro-2H-benzo[b][1,4]oxazin-7-yl)amino)nicotinamide] | 3 | 89 | – | –
26 | CC(C)Nc1cc(-c2ccc3cc(C(N)=O)cnn23)ncc1C(=O)NCC1CS(=O)(=O)C1 [Example 79, 7-(5-(((1,1-dioxidothietan-3-yl)methyl)carbamoyl)-4-(isopropylamino)pyridin-2-yl)pyrrolo[1,2-b] pyridazine-3-carboxamide] | 18 | – | – | 1820
